What is called IC50 is the point on the concentration scale where inhibition reaches its midpoint. A high value points to weaker potency.

The source of these data is patent US20040097539A1, “Hsp inductor” (priority 2001, published 2004).

One data set addresses T1, human COX-1 (Homo sapiens, UniProt P23219).
T1 construct: made in house; host or cells: Sf-21 insect cells, recombinant baculovirus BAC-COX1 (pFASTBAC1), microsome fraction
Put plainly: COX-1 inhibiting activity (chemiluminescence, microsome fractions). It is filed as biochemical. Particulars: microsome fractions from COX-1 expressing Sf-21 cells, 37° C. 25 min preincubation, arachidonic acid. The procedure: A 1.8 kb DNA fragment containing human COX-1 cDNA (FASEB J., 5 (9), 2304-2312 (1991)) prepared by the PCR method was inserted into plasmid pFASTBAC1 (CIBCOBRL) to obtain a plasmid pFBCOX1.
Using the plasmid pFBCOX1 and BAC-TO-BAC Baculovirus Expression System (GIBCOBRL), a virus stock BAC-COX1 of the recombinant baculovirus was prepared.
Sf-21 cells were inoculated in 125 mL of Sf-900 II SFM medium (GIBCOBRL) at a concentration of 1×10^6 cells/mL, and the medium was incubated at 27° C. for 24 hrs. 0.75 mL of the virus stock BAC-COX1 of the recombinant baculovirus was added, and the mixture was incubated for additional 72 hrs. The cells were separated from the medium by centrifugation (3000 rpm, 10 min.), and washed with PBS twice. The cells were suspended in 10 mL of a lysis buffer (0.1 M Tris-HCl (pH 7.4), 5 mM EDTA), and were treated with a homogenizer (POLYTRON) three times at 20000 rpm for 20 seconds so that the cells were crushed. The supernatant obtained after centrifugation (2000 rpm, 10 min.) was further centrifuged (40000 rpm, 45 min.) to give a precipitate, which was resuspended in a Lysis buffer (0.1 M Tris-HCl (pH 7.4), 5 mM EDTA), and the suspension was stored at −80° C.
(§1) To a mixture of […] of a reaction buffer previously concentrated 10 times (1 M Tris-HCl (pH 8.0), 50 mM EDTA, 1.0% Tween 20, 50 mM luminol, 100 mM hematin), 20 mL of the microsome fractions (COX-1: 40 mg, COX-2: 20 mg), and […] of distilled water, a sample compound dissolved in DMF (5 mL) was added, and the mixture was left at 37° C. for 25 min. The reaction was started by the addition of 20 mM arachidonic acid ([…]), and chemiluminescence amount during the 10-second period after the addition of arachidonic acid was determined by the use of Lumistar (BMG Lab technologies, GmbH). The inhibition rate was calculated, regarding that the enzyme activity when DMF ([…]) was added was 100%, and the enzyme activity was 0% when 4 mM flurbiprofen (5 mL) was added.

The next data set addresses T2, human COX-2 (Homo sapiens, UniProt P35354).
T2 construct: made in house; host or cells: Sf-21 insect cells, recombinant baculovirus BAC-COX2 (pFASTBAC1), microsome fraction
T2 sequence (P35354 18-604): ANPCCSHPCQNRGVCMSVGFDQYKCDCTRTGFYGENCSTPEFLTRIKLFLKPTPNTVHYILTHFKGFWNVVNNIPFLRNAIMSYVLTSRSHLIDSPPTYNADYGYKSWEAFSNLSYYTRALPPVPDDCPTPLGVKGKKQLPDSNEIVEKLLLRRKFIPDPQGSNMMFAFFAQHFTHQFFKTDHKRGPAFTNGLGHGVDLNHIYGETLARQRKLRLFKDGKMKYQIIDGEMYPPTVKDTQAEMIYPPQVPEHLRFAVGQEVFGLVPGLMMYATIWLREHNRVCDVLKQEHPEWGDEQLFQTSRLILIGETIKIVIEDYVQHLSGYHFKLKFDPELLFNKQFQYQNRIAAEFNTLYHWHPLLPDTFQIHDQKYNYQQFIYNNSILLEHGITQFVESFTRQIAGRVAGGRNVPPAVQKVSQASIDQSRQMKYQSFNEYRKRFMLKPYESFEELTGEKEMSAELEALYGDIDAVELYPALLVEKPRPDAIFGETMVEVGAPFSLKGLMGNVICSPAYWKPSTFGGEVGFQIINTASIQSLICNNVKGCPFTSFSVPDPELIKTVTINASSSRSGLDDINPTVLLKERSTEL
The data set can be described thus: COX-2 inhibiting activity (chemiluminescence, microsome fractions). It counts as biochemical. Particulars: microsome fractions from COX-2 expressing Sf-21 cells, 37° C. 25 min preincubation, arachidonic acid. As to the method: A 1.8 kb DNA fragment containing human COX-2 cDNA (Proc. Natl. Acad. Sci. U.S.A., 89 (16), 7384-7388-(1992)) prepared by the PCR method was inserted into plasmid pFASTBAC1 (CIBCOBRAL) to obtain a plasmid pFBCOX2.
Using the plasmid pFBCOX2 and BAC-TO-BAC Baculovirus Expression System (GIBCOBRAL), a virus stock BAC-COX2 of the recombinant baculovirus was prepared.
Sf-21 cells were inoculated in 125 mL of LSf-900 II SFM medium (GIBCOBRAL) at a concentration of 1×10^6 cells/mL, and the medium was incubated at 27° C. for 24 hrs. 0.75 mL of the virus stock BAC-COX2 of the recombinant baculovirus was added, and was incubated for additional 72 hrs. The cells were separated from the medium by centrifugation (3000 rpm, 10 min.), and washed twice with PBS. The cells were suspended in 10 mL of a Lysis buffer (0.1 M Tris-HCl (pH 7.4), 5 mM EDTA), and were treated with a homogenizer (POLYTRON), three times at 20000 rpm for 20 sec. so that the cells were crushed. The supernatant thus obtained after centrifugation (2000 rpm, 10 min.) was further centrifuged (40000 rpm, 45 min.) to obtain a precipitate, which was resuspended in a Lysis buffer (0.1 M Tris-HCl (pH 7.4), 5 mM EDTA), and the suspension was stored at −80° C.
as §1

A further data set relates to Male ICR-mice. Put plainly: Acetic acid rising method (analgesic activity). It counts as in vivo. Particulars: oral, 30 min before 0.6% acetic acid i.p., rising and stretching counted for 20 min. The procedure: Male ICR-mice (5 weeks old, CLEA Japan) were used (1 group, 10 mice), and a sample was orally administered (0.2 mL/10 g, b.w.). After 30 min., 0.6% acetic acid solution was injected to mice intraperitoneally (0.1 mL/10 g, b.w.), and the mice were immediately transferred into an observation cage made of a transparent acrylic resin. The number of mice rising and stretching during the following period of 20 min. was counted. The repression rate (%) was calculated by comparing the average numbers between the sample groups and the control groups and ID50 value was calculated.

Data set [1] deals with Male SD rats. The data set can be described thus: Carrageenin edema test. It counts as in vivo. Particulars: oral, 1 hr before 1% carrageenin in footpad, foot volume after 2 hr and 3 hr. As to the method:
Male SD rats (6-week-old, CLEA Japan) were used (6 rats per group). The carrageenin edema test was performed in accordance with the method of Winter et al. (Proc. Soc. Exp. Biol. Med., 111, 544-547, 1962). The volume of the footpad of the right hind limb was measured. Then, the test compound was orally administered (1.0 mL/100 g body weight), and immediately thereafter, water was orally administered to 5 mL/rat. Vehicle alone was orally administered to control group. After 1 hr., 0.05 mL of saline containing 1% carrageenin was subcutaneously injected into the footpad of the right hind limb to induce edema. After 2 hr. and 3 hr., the volume of the footpad of the right hind limb was measured. For the effects of the compound, the difference in the volume of the foot before and 2 hr. and 3 hr. after the carrageenin injection was determined, from which inhibitory rate (%) relative to the control group was calculated, and ID30 was determined.

For another data set, the system named is HSP27 gene expression. Put plainly: HSP27-inducing activity in gastric mucosa (TaqMan PCR). It counts as in vivo. To be noted: rats, oral 30 mg/ml, gastric mucosa 2 hr after administration. As to the method: Compound A (30 mg/ml) and vehicle were orally administered to rats. After 2 hr., stomach was excised from the rats, opened and washed with ice-cooled physiological saline. Gastric mucosa was taken from the stomach using sterilized cover glass, and immediately suspended in ISOGEN (Wako Pure Chemical Industries, Ltd.). Total RNA was prepared from the gastric mucosa according to instructions, and purified by RNAeasy Midi Kit (QIAGEN). Then cDNA was synthesized from the total RNA using TaqMan Gold RT-PCR Kit (Applied Biosystems), and subjected to TaqMan PCR using ABI7700 (Applied Biosystems), based on which the amount of HSP 27 gene expression was determined. Forward primer used was 5′-[…]-3′ (SEQ ID NO:1), Reverse primer used was 5′-[…]-3′ (SEQ ID NO:2), and TaqMan probe used was 5′-[…]-3′ (SEQ ID NO:3) labeled with FAM (6-carboxyfluorescein). Additionally, the amount of GAPDH gene expression was determined using TaqMan Rodent GAPDH Control Reagents VIC probe (Applied Biosystems) and G3PDH cDNA Control probe (CLONTECH), and the amount was employed as an internal control. The amount of HSP27 gene expression is shown by the values calibrated with an amount of internal control (i.e., GAPDH gene) expression (Table 4).

In data set [2] the test system is Male SD rats. The data set can be described thus: Test for gastric mucosa disorder. It counts as in vivo. To be noted: oral 300 mg/kg, stomach examined after 24 hr. As to the method:
Male SD rats (6 rats, 7 weeks old, CLEA Japan) were used. The test compound was orally administered (5 mL/kg, b.w.) to the rats after 24 hr-fasting or without fasting. After 23.5 hrs., the rats were intravenously injected with Evan's Blue (0.5% Evan's Blue/saline, 1 mL/rat) without anesthesia. After 30 min., the rats were laparotomized and stomach was excised. Esophagus was clipped. A 1% formalin solution (8 mL) was infused to the esophagus, and duodenum was clipped. The stomach was immersed in a 1% formalin solution for 10 min. or more, and sectioned along the line from duodenum to greater curvature of the stomach. After washing the stomach, the total length (mm^2) of the site (hemorrhage site: detachment of mucosa-ulcer) stained with Evan's Blue was measured with a counter under a stereomicroscope and recorded.

T1 sequence (P23219 24-599): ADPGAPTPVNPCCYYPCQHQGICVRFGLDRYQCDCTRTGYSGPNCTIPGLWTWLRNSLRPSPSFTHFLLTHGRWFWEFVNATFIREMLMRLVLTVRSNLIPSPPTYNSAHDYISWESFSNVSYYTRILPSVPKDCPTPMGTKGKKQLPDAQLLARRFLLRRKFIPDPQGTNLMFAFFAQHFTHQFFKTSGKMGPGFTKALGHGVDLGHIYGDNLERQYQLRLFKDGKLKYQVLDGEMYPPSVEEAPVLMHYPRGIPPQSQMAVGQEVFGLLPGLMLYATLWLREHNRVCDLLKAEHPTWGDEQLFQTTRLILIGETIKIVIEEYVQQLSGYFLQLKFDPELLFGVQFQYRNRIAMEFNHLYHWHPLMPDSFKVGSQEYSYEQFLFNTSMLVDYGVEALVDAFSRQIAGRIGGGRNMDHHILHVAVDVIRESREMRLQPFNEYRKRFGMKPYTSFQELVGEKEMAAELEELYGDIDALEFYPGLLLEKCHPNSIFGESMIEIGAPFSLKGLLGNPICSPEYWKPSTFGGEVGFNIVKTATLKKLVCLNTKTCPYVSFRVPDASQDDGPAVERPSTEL

With `Cc1nn(-c2ccccn2)c2[nH]c3ccc(C(F)(F)F)cc3c(=O)c12` [Compound A, 3-Methyl-1-(2-pyridinyl)-6-(trifluoromethyl)-1,9-dihydro-4H-pyrazolo[3,4-b]quinolin-4-one], the IC50 turned out to be 450 nM on human COX-1 and 380 nM against human COX-2. The compound further came in with an ID50 in the data set with Male ICR-mice of 0.9 mg/kg. In the data set on Male SD rats [1], this compound registered an ID30 of 2.2 mg/kg. The “HSP27/GAPDH (x10^4)” value in the data set with HSP27 gene expression (calibrated with GAPDH expression) is on record as 197 ± 20. Moreover, in the data set with HSP27 gene expression (relative to vehicle), the “HSP27/GAPDH (% of control)” value is given as “(277) % of control”. Also, the “Area of lesion (mm^2) (average), Administration after 24 hr-fasting” value in the data set with Male SD rats [2] (after 24 hr-fasting) is reported as 0.2 mm^2. Moreover, the “Area of lesion (mm^2) (average), Administration without fasting” value in the data set on Male SD rats [2] (without fasting) is recorded as 0 mm^2.

As to `Cc1nn(-c2ccccn2)c2[nH]c3cc(F)c(F)cc3c(=O)c12` [Compound B, 6,7-Difluoro-3-methyl-1-(2-pyridinyl)-1,9-dihydro-4H-pyrazolo[3,4-b]quinolin-4-one], the half-inhibitory concentration (IC50) worked out at 527 nM on human COX-1 and 295 nM on human COX-2.

For `Cc1nn(-c2ccccn2)c2[nH]c3cc(F)c(Cl)cc3c(=O)c12` [Compound C, 6-Chloro-7-fluoro-3-methyl-1-(2-pyridinyl)-1,9-dihydro-4H-pyrazolo[3,4-b]quinolin-4-one], the IC50 at human COX-1 was determined as 263 nM; against human COX-2, 213 nM.

`O=c1c2cc(Cl)ccc2[nH]c2c1cnn2-c1ccccn1` [Compound D, 6-Chloro-1-(2-pyridinyl)-1,9-dihydro-4H-pyrazolo[3,4-b]quinolin-4-one]: the 50% inhibitory concentration (IC50) worked out at 600 nM against human COX-1 and 360 nM against human COX-2.
